Patent US5374772A, “Substituted benzoic acids, inhibitors of phospholipases A2” (Hoffmann-LaRoche Inc., priority 1993, dated 1994)
Counter-ions that a name gives are not always drawn.

Tests used:
[1] = target: T1, HSF-PLA2 (extracellular PLA2 obtained from human synovial fluid) (Homo sapiens, UniProt P14555); test: Assay for Inhibition of HSF-PLA2 In Vitro; assay type: biochemical; conditions: for inhibition at 10 µM: read-out: % Inhib of HSF-PLA2
T1 construct: extracellular enzyme obtained from human synovial fluid; from tissue; host or cells: pooled human synovial fluid (0.1% v/v in the assay)
T1 sequence (P14555 21-144): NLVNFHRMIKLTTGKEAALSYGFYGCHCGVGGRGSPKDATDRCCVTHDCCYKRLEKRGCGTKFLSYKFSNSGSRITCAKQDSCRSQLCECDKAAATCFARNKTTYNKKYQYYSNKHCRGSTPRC
Description: The PLA2 used in this test is the extracellular enzyme obtained from human synovial fluid (HSF-PLA2). The assay for HSF-PLA2 activity was a modification of the described method [Franson R., Dobrow R., Weiss, J., Elsbach P., and […]. Lipid Res., 19, 18-23 (1978)] which was conducted using [1-^14 C]-oleate-labelled E. coli substrate in excess at a final concentration of 20,000 dpm/ml. This was equivalent to 18.2 mM of cell membrane phospholipid phosphorus and 2×10^9 autoclaved E. coli/ml. The optimal conditions which were developed for the assay of HSF-PLA2 inhibitors are summarized as follows. […] The reaction was terminated by the addition of 2.5 ml of chloroform-methanol (1 to 1.5, v/v). The extraction of lipids from the stopped reaction mixture was conducted by the further additions of 0.5 ml of chloroform and 1 ml of water with mixing. […] The extracted lipid residue was redissolved in […] of a solution containing carrier oleic acid (0.2 mg/ml) of […]]). […] This TLC system rapidly (6 minutes) resolved the enzymatically released product, ^14 C-oleic acid, from the unreacted ^14 C-phospholipid substrate. The unsaturated lipids were located on the chromatogram by a brief exposure to iodine vapor. The oleic acid zone (Rf value 0.95) and phospholipid zone (origin) were cut out, chopped into small pieces, shaken with 2 ml of ethanol-water (80 to 20, v/v) and 15 ml of Aquasol and counted for radioactivity. A control incubation of substrate in the absence of HSF-PLA2 was performed in each experiment. The PLA2 activity of the human synovial fluid was corrected for this small control value. […] The specific activity of PLA2 in the pooled human synovial fluid under the optimal assay conditions was 49.2 nmoles [1-^14 C]-oleic acid released hour^-1 mg^-1. The IC50 (μM concentration of test compound that produces 50% inhibition of PLA2 activity) was determined for each test compound.

[2] = tested on: TPA-induced mouse ear edema; test: TPA Induced Mouse Ear Edema Test (ear punch weight); assay type: in vivo, male CD-1 mice; conditions: 30 minutes prior to TPA, ear punch weight at 6 hours; for inhibition in vivo at 1 mg / inhibition in vivo at 0.3 mg: Mus musculus; for inhibition in vivo at 1 mg: 1 mg topical, read-out: % Inhib of TPA Mouse Ear Edema (1 mg); for inhibition in vivo at 0.3 mg: 0.3 mg topical, read-out: % Inhib of TPA Mouse Ear Edema (0.3 mg)
Description: The TPA-induced mouse ear edema test, a model of irritant-induced contact dermatitis is described in the following reference: J. M. Young, B. M. Wagner and […]. Invest. Dermatology 80, 48-52 (1983). For this test, 10 μl of 12-O-tetradecanoylphorbol-13-acetate (TPA), dissolved in a vehicle of pyridine: water: diethyl ether (20:5:75), was applied to the outside of the right ear of 3-4 week old male CD-1 mice (8 animals per group). The test compounds were dissolved in the same vehicle and 10 μl was applied to the inside of the same ear 30 minutes prior to the application of TPA. Ear punches (6 mm) were removed at 6 hours after TPA application, weighed and assayed for myeloperoxidase (MPO) activity as described in the following reference: P. P. Bradley, […]. Christensen and G. Rothstein, J. Invest. Dermatology 78, 206-209 (1982). The wet weight of the ear biopsy punches is a measure of the ear edema and the level of MPO activity in the ear punches is an indicator of neutrophil infiltration. The data are expressed as percent inhibition of drug-[…] relative to the control group.

[3] = tested on: croton oil-induced mouse ear edema; test: Croton Oil Mouse Ear Edema Test; assay type: in vivo, male CD-1 mice; conditions: 1 mg topical, coapplied with croton oil, ear punch weight at 6 hours
Description: The croton oil-induced mouse ear edema test, a model of irritant-induced contact dermatitis, has been used for evaluation of the PLA2 inhibitors by the topical route of administration. This test was carried out as described in the following references:
The major active ingredient in croton oil is the tumor promoter 12-O-tetradecanoylphorbol-13-acetate (TPA) and the topical application of TPA to mouse skin has been reported to cause an increase in epidermal PGE2 production as well as an increase in epidermal cell membrane PLA2 activity. Indomethacin, an inhibitor of prostaglandin synthesis, prevented the TPA-mediated increase in epidermal PGE2 levels as well as the TPA-mediated induction of epidermal cell ornithine decarboxylase. Furthermore, the application of PGE2 to mouse skin countered the inhibitory effect of indomethacin upon TPA-stimulated cellular proliferation.
Twenty five μl of a 1% croton oil solution [dissolved in a mixture of pyridine/water/diethyl ether at a ratio of 5/20/75 (croton oil vehicle)] are applied to the outer side of the right ear of 3-4 week old male CD-1 mice (8 animals per group). The test compounds are dissolved directly in the 1% croton oil solution at various concentrations and coapplied. Control animals receive 25 μl of croton oil vehicle on the right ear. Biopsy punches are removed at 6 hours from the fight ear of the animals using a 6 mm skin trephine (Roboz, Washington, D.C.) and the wet weight of the ear punches is determined. The weight of the biopsy punches is a measure of ear inflammation, primarily edema. The data are expressed as percent inhibition relative to control groups.
Statistical analysis of the mean edema values of the control versus the treated groups is performed using Student's t-test. The significance of changes from the mean value for vehicle-treated (control) animals in the following Tables is indicated as follows: *p<0.05, **p<0.01, ***p<0.005,ns/not significant.

Compound	inhibition at 10 µM [1] [%]	inhibition in vivo at 1 mg [2] [%]	other results
O=C(O)c1cc(OCCCOc2ccc(-c3ccccc3)cc2)cc(OCCCOc2ccc(-c3ccccc3)cc2)c1 [Example 6, 3,5-bis[3-(1,1'-Biphenyl-4-yloxy)propoxy]benzoic acid]			IC50 ([1]; given as 50 % inhibition at the given concentration, 14C-oleate-labelled E. coli substrate, pH 7.3, 37° C., 30 minutes, read-out: % Inhib of HSF-PLA2: 50 (concentration) = IC50 (μM concentration that produces 50% inhibition of PLA2 activity)): 3 µM
O=C(O)c1cc(OCCOc2cccc3ccccc23)cc(OCCOc2cccc3ccccc23)c1 [Example 8A, 3,5-bis[2-(1-naphthalenyloxy)ethoxy]benzoic acid]	67		
CCCCCCCCCCCCCCCCCCOc1cc(OCCOc2ccc3ccccc3c2)cc(C(=O)O)c1 [Example 15, 3-[2-(2-Naphthalenyloxy)ethoxy]-5-(octadecyloxy) benzoic acid]	77		
CCCCCCCCCCCCCCCCCCOc1cc(OCCCOc2ccc([S+](C)[O-])cc2)cc(C(=O)O)c1 (stereo not drawn) [Example 24, 3-[3-[4-(Methylsulfinyl)phenoxy]propoxy]-5-(octadecyloxy)benzoic acid]	72	43	
CCCCCCCCCCCCCCCCCCOc1cc(OCCCOc2ccc(S(C)(=O)=O)cc2)cc(C(=O)O)c1 [Example 26, 3-[3-[4-(Methylsulfonyl)phenoxy]propoxy]-5-(octadecyloxy)benzoic acid]	86	42	
CCCCCCCCCCCCCCCCCCOc1cc(OCCCOc2ccc(OCc3ccccc3)cc2)cc(C(=O)O)c1 [Example 30, 3-[[3-(4-Phenylmethoxy)phenoxy]propoxy]-5-(octadecyloxy)benzoic acid]			% Inhib of Croton Oil Mouse Ear Edema (1 mg) [3]: 62%
CCCCCCCCCCCCCCCCCCOc1cc(OCCCOc2ccc(O)cc2)cc(C(=O)OC)c1 [Example 34, 3-[3-(4-Hydroxyphenoxy)propoxy]-5-(octadecyloxy) benzoic acid methyl ester]	2	42	
CCCCCCCCCCCCCCOc1cc(OCCCOc2ccc(OCc3ccccc3)cc2)cc(C(=O)O)c1 [Example 36, 3-[3-[4-(Phenylmethoxy)phenoxy]propoxy]-5-(tetradecyloxy)benzoic acid]	87	52	
CCCCCCCCCCCCCCOc1cc(OCCCOc2ccc(O)cc2)cc(C(=O)O)c1 [Example 37, 3-[3-(4-Hydroxyphenoxy)propoxy]-5-(tetradecyloxy) benzoic acid]	75	57	
CCCCCCCCCCOc1cc(OCCCOc2ccc(OCc3ccccc3)cc2)cc(C(=O)O)c1 [Example 39, 3-(Decyloxy)-5-[3-[4-(phenylmethoxy)phenoxy]propoxy]benzoic acid]	61		
O=C(O)c1cc(OCCCOc2ccc(OCc3ccccc3)cc2)cc(OCCCOc2ccc(OCc3ccccc3)cc2)c1 [Example 41, 3,5-bis[3-[4-(Phenylmethoxy)phenoxy]propoxy]benzoic acid]	54	54	
O=C(O)c1cc(OCCCOc2ccc(O)cc2)cc(OCCCOc2ccc(O)cc2)c1 [Example 42, 3,5-bis[3-(4-Hydroxyphenoxy)propoxy]benzoic acid]	5	43	
CCCCCCCCCCCCCCCCCCOc1cc(OCCCCCCOc2ccc(O)cc2)cc(C(=O)O)c1 [Example 44]	94	46	
CCCCCCCCCCCCCCCCCCOc1cc(OCCCOc2ccccc2O)cc(C(=O)O)c1 [Example 46, 3-[3-(2-Hydroxyphenoxy)propoxy]-5-(octadecyloxy) benzoic acid]	91		inhibition in vivo at 0.3 mg [2]: 47%
CCCCCCCCCCCCCCCCCCOc1ccc(OCCCOc2ccc(OCc3ccccc3)cc2)c(C(=O)O)c1 [Example 49, 5-(Octadecyloxy)-2-[3-[4-(phenylmethoxy)phenoxy]propoxy]benzoic acid]	79		inhibition in vivo at 0.3 mg [2]: 27%
CCCCCCCCCCCCCCCCCCOc1ccc(OCCCOc2ccc(O)cc2)c(C(=O)O)c1 [Example 50, 2-[3-(4-Hydroxyphenoxy)propoxy]-5-(octadecyloxy) benzoic acid]	93	45	
CCCCCCCCCCCCCCCCCCOc1ccc(C(=O)O)c(OCCCOc2ccc(OCc3ccccc3)cc2)c1 [Example 53, 4-(Octadecyloxy)-2-[3-[4-(phenylmethoxy)phenoxy]propoxy]benzoic acid]	55	17	
CCCCCCCCCCCCCCCCCCOc1ccc(C(=O)O)c(OCCCOc2ccc(O)cc2)c1 [Example 54, 2-[3-(4-Hydroxyphenoxy)propoxy]-4-(octadecyloxy) benzoic acid]	79	31	
CCCCCCCCCCCCCCCCCCOc1cccc(C(=O)O)c1OCCCOc1ccc(OCc2ccccc2)cc1 [Example 57, 3-(Octadecyloxy)-2-[3-[4-(phenylmethoxy)phenoxy]propoxy]benzoic acid]	91	62	
CCCCCCCCCCCCCCOc1cc(OCCCCCCc2cccc(O)c2O)cc(C(=O)OC)c1 [Example 61, 3-[[6-(2,3-Dihydroxyphenyl)hexyl]oxy]-5-(tetradecyloxy) benzoic acid methyl ester]	17	44	
CCCCCCCCCCOc1cc(OCCCCCCc2cccc(O)c2O)cc(C(=O)OC)c1 [Example 66, 3-(Decyloxy)-5-[[6-(2,3-dihydroxyphenyl)hexyl]oxy]benzoic acid methyl ester]	22		inhibition in vivo at 0.3 mg [2]: 55%
CCCCCCCCCCOc1cc(OCCCCCCc2cccc(O)c2O)cc(C(=O)OCCN(CC)CC)c1 [Example 71, 3-(Decyloxy)-5-[[6-(2,3-dihydroxyphenyl)hexyl]oxy]benzoic acid 2-(diethylamino)ethyl ester monohydrochloride salt]		57	
CCCCCCCCCCOc1cc(OCCCCCCc2cccc(O)c2O)cc(C(=O)OCOC(C)=O)c1 [Example 72, 3-(Decyloxy)-5-[[6-(2,3-dihydroxyphenyl)hexyl]oxy]benzoic acid (acetyloxy)methyl ester]			% Inhib of TPA Mouse Ear Edema (0.1 mg) ([2]; 0.1 mg topical): 52%
